According to the supplement of paper PMC10307832:

How the values were obtained:
Assay in all cases: relative viability (nuclei count vs DMSO), 5 days (fraction); higher = more cells survive
IMD-0354 + Trametinib = compound: O=C(Nc1cc(C(F)(F)F)cc(C(F)(F)F)c1)c1cc(Cl)ccc1O [IMD-0354] + CC(=O)Nc1cccc(-n2c(=O)n(C3CC3)c(=O)c3c(Nc4ccc(I)cc4F)n(C)c(=O)c(C)c32)c1 [Trametinib] (partner 0.02 µM)
Outline: (§1)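 One day after seeding in 1536-well plates, lung cancer cell lines were dosed by pin tool. Dosing was either single-drug or a fixed anchor-drug dose plus five library-drug doses (not always all listed) in √10 steps. After 5 days, nuclei were stained in one fix-and-stain step and counted on 4× images, and relative viability is the nuclei count of treated wells over that of vehicle wells, given as the median of duplicate plates.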

IMD-0354 + AZD7762 = compound: O=C(Nc1cc(C(F)(F)F)cc(C(F)(F)F)c1)c1cc(Cl)ccc1O [IMD-0354] + NC(=O)Nc1cc(-c2cccc(F)c2)sc1C(=O)N[C@H]1CCCNC1 [AZD7762] (partner 0.2 µM)
Outline: as §1

CX-5461 + Decitabine = compound: Cc1cnc(CNC(=O)c2c(=O)c3ccc(N4CCCN(C)CC4)nc3n3c2sc2ccccc23)cn1 [CX-5461] + Nc1ncn([C@H]2C[C@H](O)[C@@H](CO)O2)c(=O)n1 [Decitabine] (partner 2 µM)
Outline: as §1

CX-5461 + Pictilisib = compound: Cc1cnc(CNC(=O)c2c(=O)c3ccc(N4CCCN(C)CC4)nc3n3c2sc2ccccc23)cn1 [CX-5461] + CS(=O)(=O)N1CCN(Cc2cc3nc(-c4cccc5[nH]ncc45)nc(N4CCOCC4)c3s2)CC1 [Pictilisib] (partner 1 µM)
Outline: as §1

| Cell Line | relative viability (IMD-0354 + Trametinib; first compound 0.04 µM) | relative viability (IMD-0354 + Trametinib; first compound 0.1265 µM) | relative viability (IMD-0354 + Trametinib; first compound 0.4 µM) | relative viability (IMD-0354 + Trametinib; first compound 1.265 µM) | relative viability (IMD-0354 + Trametinib; first compound 4 µM) | relative viability (IMD-0354 + AZD7762; first compound 0.04 µM) | relative viability (IMD-0354 + AZD7762; first compound 0.1265 µM) | relative viability (IMD-0354 + AZD7762; first compound 0.4 µM) | relative viability (IMD-0354 + AZD7762; first compound 1.265 µM) | relative viability (IMD-0354 + AZD7762; first compound 4 µM) | relative viability (CX-5461 + Decitabine; first compound 0.01 µM) | relative viability (CX-5461 + Decitabine; first compound 0.03162 µM) | relative viability (CX-5461 + Decitabine; first compound 0.1 µM) | relative viability (CX-5461 + Decitabine; first compound 0.3162 µM) | relative viability (CX-5461 + Decitabine; first compound 1 µM) | relative viability (CX-5461 + Pictilisib; first compound 0.01 µM) | relative viability (CX-5461 + Pictilisib; first compound 0.03162 µM) | relative viability (CX-5461 + Pictilisib; first compound 0.1 µM) | relative viability (CX-5461 + Pictilisib; first compound 0.3162 µM) | relative viability (CX-5461 + Pictilisib; first compound 1 µM) |
| --- | --- | --- | --- | --- | --- | --- | --- | --- | --- | --- | --- | --- | --- | --- | --- | --- | --- | --- | --- | --- |
| 201T | 0.732 | 0.74 | 0.611 | 0.727 | 0.319 | 0.511 | 0.616 | 0.392 | 0.657 | 0.214 | 0.861 | 0.849 | 0.885 | 0.814 | 0.834 | 0.713 | 0.748 | 0.753 | 0.708 | 0.721 |
| A549 | – | – | – | – | – | – | – | – | – | – | 0.299 | 0.387 | 0.249 | 0.269 | 0.0566 | 0.555 | 0.525 | – | 0.472 | 0.0627 |
| A-427 | 0.878 | 0.73 | 0.636 | 0.176 | 0.162 | 1.01 | 0.827 | 0.585 | 0.14 | 0.202 | 0.593 | 0.603 | 0.52 | 0.269 | 0.481 | 0.78 | 0.868 | 0.732 | – | 0.584 |
| ABC-1 | – | – | – | – | – | 1.26 | 0.98 | 0.522 | 0.257 | 0.331 | 0.971 | – | 1.38 | 0.429 | 0.96 | 0.792 | 1 | – | 0.289 | 0.573 |
| BEN | 1.07 | 0.853 | 0.814 | 0.472 | 0.401 | 0.715 | 0.793 | 0.487 | 0.334 | 0.347 | 0.757 | 0.706 | 0.711 | 0.652 | 0.545 | 0.662 | 0.573 | 0.6 | 0.543 | 0.534 |
| CAL-12T | 0.333 | 0.308 | 0.403 | 0.191 | 0.211 | 0.655 | 0.744 | 0.357 | 0.261 | 0.32 | – | – | – | – | – | 0.384 | 0.386 | 0.331 | 0.33 | 0.449 |
| COR-L23 | 0.64 | 0.576 | 0.458 | 0.118 | 0.163 | – | – | – | – | – | 0.424 | 0.424 | 0.371 | 0.489 | 0.219 | 0.811 | 1.15 | 0.656 | 0.65 | 0.443 |
| COR-L 105 | 0.435 | 0.448 | 0.455 | 0.342 | 0.318 | – | – | – | – | – | 0.668 | 0.612 | 0.609 | 0.512 | 0.436 | 0.425 | 0.461 | 0.352 | 0.281 | 0.333 |
| Calu-6 | – | – | – | – | – | – | – | – | – | – | – | – | – | – | – | 1 | 1.04 | 0.817 | 0.845 | 0.409 |
| ChaGo-K-1 | 0.918 | 0.872 | 0.68 | 0.718 | 0.233 | 0.912 | 0.937 | 0.596 | 0.218 | 0.254 | 0.554 | 0.485 | 0.547 | 0.543 | 0.431 | 0.938 | 0.658 | 0.564 | 0.35 | 0.395 |
| EBC-1 | – | – | – | – | – | – | – | – | – | – | – | – | – | – | – | 0.375 | 0.344 | 0.331 | 0.362 | 0.224 |
| EKVX | 0.399 | 0.3 | – | 0.339 | 0.175 | 0.741 | 0.625 | – | 0.328 | 0.21 | 0.286 | 0.418 | 0.395 | – | 0.39 | 0.47 | 0.447 | 0.429 | – | 0.389 |
| EMC-BAC-2 | 0.918 | 0.933 | 0.584 | – | 0.3 | 1.19 | 1.13 | 0.822 | 0.443 | 0.433 | 0.97 | 0.994 | 0.709 | 0.655 | 0.473 | 0.555 | 0.565 | 0.562 | 0.414 | 0.353 |
| EPLC-272H | 0.295 | 0.271 | 0.317 | 0.268 | 0.201 | 0.167 | 0.217 | 0.162 | 0.19 | 0.118 | 0.358 | 0.425 | 0.396 | – | 0.297 | 0.306 | 0.353 | 0.339 | – | 0.335 |
| H3255 | 0.612 | 0.664 | 0.472 | 0.49 | 0.311 | 0.812 | 1 | 0.573 | 0.385 | 0.274 | 0.634 | 0.611 | 0.73 | – | 0.624 | 0.489 | 0.554 | 0.469 | 0.347 | 0.422 |
| HARA | 0.772 | 0.517 | 0.632 | 0.225 | 0.262 | 0.281 | 0.357 | 0.38 | 0.177 | 0.141 | 0.595 | 0.429 | 0.559 | 0.587 | 0.526 | 0.634 | 0.559 | 0.37 | 0.497 | 0.267 |
| HCC-15 | 0.387 | 0.35 | 0.335 | 0.269 | 0.146 | 1.07 | 1.13 | 0.923 | 0.648 | 0.157 | 0.684 | 0.654 | 0.605 | 0.69 | 0.354 | 0.753 | 0.933 | 0.749 | 0.239 | 0.495 |
| HCC-44 | 1.09 | 1.14 | 0.973 | 1.04 | 0.319 | 0.988 | 1.01 | 1.01 | 0.855 | 0.314 | 0.946 | 1.02 | 0.887 | 0.939 | 0.837 | 0.584 | 0.877 | 0.492 | 0.644 | 0.43 |
| HCC-78 | 0.765 | 0.687 | 0.766 | 0.782 | 0.334 | 0.783 | 0.658 | 0.543 | 0.672 | 0.485 | 0.678 | 0.678 | 0.595 | 0.694 | 0.565 | 0.187 | 0.194 | 0.172 | 0.252 | 0.212 |
